Results taken from patent US20240182526A1, “COMPOSITIONS AND METHODS FOR MODULTING INFLAMMATORY AND DEGENERATIVE DISORDER” (University of Southern California, priority 2021, published 2024).
“Also recorded” adds a separate entry of the source.

Key:
pNF-κB p65 = assay: Western blot of pNF-κB p65 in pig articular chondrocytes; assay type: cell-based; settings: pig articular chondrocytes, OSM, 24 hours
Method: (§1) For standard western blot, treated and non-treated cells were lysed in RIPA Lysis and Extraction Buffer (Pierce, Rockford, IL) containing protease inhibitors (Pierce) followed by sonication with a 15-second pulse at a power output of 2 using the VirSonic 100 (SP Industries Company, Warminster, PA). Protein concentrations were determined by BCA protein assay (Pierce). Proteins were resolved with SDS-PAGE utilizing 4-15% Mini-PROTEAN TGX Precast Gels and transferred to Trans-Blot Turbo Transfer Packs with a 0.2-μm pore-size nitrocellulose membrane. The SDS-PAGE running buffer, 4-15% Mini-PROTEAN TGX Precast Gels, Trans-Blot Turbo Transfer Packs with a 0.2-μm pore-size nitrocellulose membrane was purchased from Biorad (Hercules, CA). Nitrocellulose membranes were blocked in 5% nonfat milk in 0.05% (v/v) Tween 20 (PBST) (Corning, Manassas, VA). Membranes were then incubated with primary antibodies p-gp130 Y814 (Evseenko lab, AbClonal), p-AKT (cat #4060, Cell Signaling), p-ERK 1/2 (cat #9106, Cell Signaling), p-Y416-SRC (cat #1246F, Novus Biologicals), p-gp130 (cat #1453R, Bioss USA) and p-NFκBp65 (cat #8242, Cell Signaling), and/or YAP1 (cat #4912, Cell Signaling). Histone H3 (cat #9515, Cell Signaling) was used as loading control. After washing in PBS containing 0.05% (v/v) Tween 20 (PBST), membranes were incubated with rabbit (cat #31460, Thermo Scientific) or mouse IgG-HRP (cat #31430, Thermo Scientific) secondary antibodies. After washing, membranes were developed with the Clarity Western ECL Blotting Substrate (Hercules, CA). Quantification of blots was performed using ImageJ 1.44 followed by Prism9 for analysis.

MAPK (ERK 1/2) = assay: Western blot of MAPK (pERK 1/2) in OSM-stimulated pig articular chondrocytes; assay type: cell-based
Method: as §1, with “After washing in PBS containing 0.05% (v/v) Tween 20 (PBST), membranes were incubated with rabbit (cat #31460, Thermo Scientific) or mouse IgG-HRP (cat #31430, Thermo Scientific) secondary antibodies. After washing, membranes were developed with the Clarity Western ECL Blotting Substrate (Hercules, CA).” left out

canine OA model = assay: Canine osteoarthritis model (medial meniscal release); assay type: in vivo, dog; settings: for histological (OARSI) scores of joint sections, matrix catabolism: intra-articular injections at post-operative weeks 4 and 11
Method: Single-cell sequencing using 10× Genomics. Single cell samples were prepared using Next GEM Single Cell 5′ v2 (dual index) and Chip Kit (10× Genomics) according to the manufacturer's protocol. Briefly samples were FACS sorted using DAPI to select live cells followed by resuspension in 0.04% BSA-PBS. Nearly 1200 cells/μl were added to each well of the chip with a target cell recovery estimate of 10000 cells. Thereafter Gel bead-in Emulsions (GEMs) were generated using GemCode Single-Cell Instrument. GEMs were reverse transcribed, droplets were broken and single stranded cDNA was isolated. cDNAs were cleaned up with DynaBeads and amplified. Finally, cDNAs were ligated with adapters, post-ligation products were amplified, cleaned-up with SPRIselect and purified libraries were sequenced on Novaseq.
10× Sequencing data analysis. Raw sequencing reads were processed using Partek Flow Analysis Software (build version 10.0.21.0210). Briefly, raw reads were checked for their quality, trimmed and reads with an average base quality score per position>30 were considered for alignment. Trimmed reads were aligned to the dog genome version canFam3-Ensembl_v102 using STAR-2.6.1d with default parameters. Reads with alignment percentage >75% were deduplicated based on their unique molecular identifiers (UMIs). Reads mapping to the same chromosomal location with duplicate UMIs were removed. Thereafter ‘Knee’ plot was constructed using the cumulative fraction of reads/UMIs for all barcodes. Barcodes […] the cut-off defined by the location of the knee were assigned as true cell barcodes and quantified. Further noise filtration was done by removing cells having >5% mitochondrial counts and total read counts >24,000. Genes not expressed in any cell were also removed as an additional clean-up step. Cleaned-up reads were normalized using counts per million (CPM) method followed by log-transformation generating count matrices for each sample. Samples were batch-corrected on the basis of expressed genes and mitochondrial reads percent. Count matrices were used to visualize and explore the samples in further details by generating tSNE plots, a non-linear dimensional reduction technique. This algorithm learns the underlying manifold of the data and places similar cells together in a low-dimensional space. Gene ontology enrichment analysis for the differentially expressed genes was performed using DAVID Gene Functional Classification Tool ([http://]david.abcc.ncifcrf.gov; version 6.8). Dot plots were generated in R (v4.0.3) using ggplot2(v3.3.3).
Immunohistochemistry. Histological staining for was performed on wild type (WT) mice, F814 mice and all mice that underwent destabilization of the medial meniscus (DMM). Six weeks after surgery, mice were sacrificed and joints were fixed in 10% formalin, decalcified in 10% EDTA and embedded in paraffin. For rat model, 6 weeks after partial medial meniscectomy (PMM), rats were sacrificed and joints were fixed in 10% formalin, decalcified in 10% EDTA and embedded in paraffin. A total of three 8 μm thick sections were made at a 200 μm interval by coronal sectioning. For canine model, 4 and 16 weeks after medial meniscal release (MMR), dogs were sacrificed and joints were fixed in 10% formalin, decalcified in 10% EDTA and embedded in paraffin. No animals were excluded from analysis. A microtome (Leica) was used to cut 5-μm sections for joints. H&E staining was performed to assess morphology. Safranin O/Fast Green staining, immunohistochemistry for proteolytic enzymes and Osteoarthritis Research Society International (OARSI) scoring was performed as described (41, 42). For OARSI scoring, observers performing the analysis were blinded as whether the slides were from treated or control animals. The stained samples were visually observed using LSCM (Zeiss LSM710, Carl Zeiss, Germany).
Canine osteoarthritis model. […]

Cc1ccc(-c2csc(NC(=O)c3ccccn3)n2)cc1 [Peptide R805]
protein levels of pNF-κB p65 after OSM stimulation (pNF-κB p65): markedly suppressed
MAPK (pERK 1/2) activation induced by OSM (MAPK (ERK 1/2)): markedly suppressed
histological abnormalities of cartilage (canine OA model; 0.1 μg dose group (as in saline group)): focal partial- and full thickness cartilage erosions
cortical outline of the medial tibial plateau (canine OA model; 10 ug and 1 ug doses): almost no change in the cortical outline
bone mineral density (sclerosis) in medial compartment of the operated stifle, microCT (canine OA model; 10 and 1 μg groups): consistent absence of sclerosis
scRNA-seq of synoviocytes: joint inflammatory milieu (canine OA model; R805-treated vs control dogs): biases the joint environment away from a chronic inflammatory identity following injury; also recorded: promotes an anti-inflammatory, anti-fibrotic milieu in an injured joint
knee joint shape change from baseline (serial CT) (canine OA model; canine OA model): clearly controlled; also recorded: dose-dependent reduction in ectopic bone formation
pain (Colorado Pain Scores) (canine OA model; canine OA model): minimal pain
subchondral sclerosis / BMD in the contralateral, non-operated knee (canine OA model; canine OA model): did not develop subchondral sclerosis in the contralateral knee; also recorded: increased with decreasing dose of R805
pain (Colorado Pain Scores) (canine OA model; canine OA model, listed as CX-011): profound effect on alleviating pain
synovial membrane inflammation (canine OA model; high and middle dose groups): mild intimal hypertrophy with occasional subintimal mononuclear cell infiltration; also recorded: reduced by mid and high doses of R805
lameness scores (canine OA model; high dose group): minimal pain (FIG. 5E) and lameness
histological (OARSI) scores of joint sections, matrix catabolism (canine OA model): dramatically reduces the appearance of OA in rat and canine models; also recorded: incremental improvement in the histological scores as the R805 dose increased
histological (OARSI) scores of joint sections, matrix catabolism (canine OA model; listed as CX-011): profound effect on alleviating pain and matrix catabolism
synovial membrane inflammation (canine OA model; low dose (as in saline treated dogs)): profound increase in subintimal vasculature, new connective tissue and cellular infiltrate
